Reference: US20240417405A1, “Substituted Spiro Derivatives” (Janssen Pharmaceutica NV, priority 2021, published 2024)

molecular target: T1, menin/MLL (terbium chelate-labeled menin, FITC-MBM1 peptide) (Homo sapiens, UniProt O00255, T541A); assay: Menin/MLL homogenous time-resolved fluorescence (HTRF) assay; assay type: binding; conditions: 30 min incubation
T1 construct: Menin (a.a 1-610-6xhis tag)
T1 sequence (O00255 with tags, fused parts or gaps T541A): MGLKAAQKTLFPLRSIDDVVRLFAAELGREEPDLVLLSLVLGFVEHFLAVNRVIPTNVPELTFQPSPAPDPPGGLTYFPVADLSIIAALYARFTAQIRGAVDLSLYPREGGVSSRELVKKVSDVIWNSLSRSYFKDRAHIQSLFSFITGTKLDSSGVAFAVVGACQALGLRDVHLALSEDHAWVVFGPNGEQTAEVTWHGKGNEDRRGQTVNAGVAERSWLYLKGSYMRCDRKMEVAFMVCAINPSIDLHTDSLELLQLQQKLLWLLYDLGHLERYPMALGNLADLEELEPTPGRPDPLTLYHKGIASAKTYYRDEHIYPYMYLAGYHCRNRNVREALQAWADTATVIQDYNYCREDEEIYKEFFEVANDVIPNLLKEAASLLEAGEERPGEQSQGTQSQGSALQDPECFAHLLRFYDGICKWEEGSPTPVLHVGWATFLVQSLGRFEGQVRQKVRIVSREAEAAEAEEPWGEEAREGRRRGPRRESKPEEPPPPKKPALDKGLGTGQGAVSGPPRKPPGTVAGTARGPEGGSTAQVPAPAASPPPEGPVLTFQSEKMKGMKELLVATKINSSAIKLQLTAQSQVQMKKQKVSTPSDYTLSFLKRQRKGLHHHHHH
Protocol: 1) Menin/MLL Homogenous Time-Resolved Fluorescence (HTRF) Assay
To an untreated, white 384-well microtiter plate was added 40 nL 200× test compound in DMSO and 4 μL 2× terbium chelate-labeled menin (vide infra for preparation) in assay buffer (40 mM Tris.HCl, pH 7.5, 50 mM NaCl, 1 mM DTT (dithiothreitol) and 0.05% Pluronic F-127). After incubation of test compound and terbium chelate-labeled menin for 30 min at ambient temperature, 4 μL 2× FITC-MBM1 peptide (FITC-β-alanine-SARWRFPARPGT-NH2 (SEQ ID NO: 3)) (“FITC” means fluorescein isothiocyanate) in assay buffer was added, the microtiter plate centrifuged at 1000 rpm for 1 min and the assay mixtures incubated for 15 min at ambient temperature. The relative amount of menin FITC-MBM1 complex present in an assay mixture is determined by measuring the homogenous time-resolved fluorescence (HTRF) of the terbium/FITC donor/acceptor fluorophore pair using an EnVision microplate reader (ex. 337 nm/terbium em. 490 nm/FITC em. 520 nm) at ambient temperature. The degree of fluorescence resonance energy transfer (the HTRF value) is expressed as the ratio of the fluorescence emission intensities of the FITC and terbium fluorophores (F^em 520 nm/F^em 490 nm). The final concentrations of reagents in the binding assay are 200 pM terbium chelate-labeled menin, 75 nM FITC-MBM1 peptide and 0.5% DMSO in assay buffer. Dose-response titrations of test compounds are conducted using an 11 point, four-fold serial dilution scheme, starting typically at 10 μM.
Compound potencies were determined by first calculating % inhibition at each compound concentration according to equation 1:
% inhibition=((HC−LC)−(HTRF^compound−LC))/(HC−LC))*100 (Eqn 1)
Where LC and HC are the HTRF values of the assay in the presence or absence of a saturating concentration of a compound that competes with FITC-MBM1 for binding to menin, and HTRF^compound is the measured HTRF value in the presence of the test compound. HC and LC HTRF values represent an average of at least 10 replicates per plate.
% inhibition=Bottom+(Top−Bottom)/(1+10^((logIC50−log[cmpd])*h)) (Eqn 2)
Where Bottom and Top are the lower and upper asymptotes of the dose-response curve, respectively, IC50 is the concentration of compound that yields 50% inhibition of signal and h is the Hill coefficient. IC50 values below 0.1 nM in the HTRF assay were reported as 0.1 nM in the Table below (detection limit).
Preparation of Terbium cryptate labeling of Menin: Menin (a.a 1-610-6xhis tag (“6xhis tag” disclosed as SEQ ID NO: 2), 2.3 mg/mL in 20 mM Hepes (2-[4-(2-Hydroxyethyl)-1-piperazinyl]ethane sulfonic acid), 80 mM NaCl, 5 mM DTT (Dithiothreitol), pH 7.5) was labeled with terbium cryptate as follows. 200 μg of Menin was buffer exchanged into 1× Hepes buffer. 6.67 μM Menin was incubated with 8-fold molar excess NHS (N-hydroxysuccinimide)-terbium cryptate for 40 minutes at room temperature. Half of the labeled protein was purified away from free label by running the reaction over a NAP5 column with elution buffer (0.1 M Hepes, pH 7+0.1% BSA (bovine serum albumin)). The other half was eluted with 0.1 M phosphate buffered saline (PBS), pH7. 400 μl of eluent was collected for each, aliquoted and frozen at −80° C. The final concentration of terbium-labeled Menin protein was 115 μg/mL in Hepes buffer and 85 μg/mL in PBS buffer, respectively.

Row | Structure (SMILES) | IC50 [pM]
1 | Cc1noc(C2CC2)c1-c1cc(F)ccc1Oc1nncnc1N1CCC2(C1)CN([C@H](C(C)C)C1CC(NC(=O)OC(C)(C)C)C1)C2 (stereo partly drawn) [Compound 505, tert-butyl N-[3-[(1R)-1-[7-[6-[2-(5-cyclopropyl-3-methyl-isoxazol-4-yl)-4-fluoro-phenoxy]-1,2,4-triazin-5-yl]-2,7-diazaspiro[3.4]octan-2-yl]-2-methyl-propyl]cyclobutyl]carbamate] | 540
2 | CNC(=O)c1nc(N[C@H]2C[C@@H](C(C(C)C)N3CC4(CCN(c5ncnnc5Oc5ccc(F)cc5-c5cncnc5C5CC5)C4)C3)C2)oc1C (single isomer, unassigned) [Compound 459] | 60
3 | Cc1noc(C2CC2)c1-c1cc(F)ccc1Oc1nncnc1N1CCC2(C1)CN([C@H](C(C)C)[C@H]1C[C@@H](N(C)C)C1)C2 (single isomer, unassigned) [Compound 503] | 180
4 | C[C@@H]([C@H]1C[C@@H](NC(=O)C2CC2)C1)N1CC2(CCN(c3ncnnc3Oc3ccc(F)cc3-c3cncnc3C3CC3)C2)C1 (single isomer, unassigned) [Compound 444] | 160
5 | CC(C)[C@H]([C@H]1C[C@@H](N2CC3(CCC(=O)N3C)C2)C1)N1CC2(CCN(c3ncnnc3Oc3ccc(F)cc3-c3cncnc3C3CC3)C2)C1 (single isomer, unassigned) [Compound 316] | 4900
6 | CC(=O)N1CCN([C@H]2C[C@H]([C@H](C(C)C)N3CC4(CCN(c5ncnnc5Oc5ccc(F)cc5-c5cnncc5C5CC5)C4)C3)C2)CC1 (single isomer, unassigned) [Compound 105] | 1000
7 | Cc1noc(C2CC2)c1-c1cc(F)ccc1Oc1nncnc1N1CCC2(C1)CN([C@H](C(C)C)[C@H]1C[C@@H](NC(=O)OC(C)(C)C)C1)C2 [Compound 504, tert-butyl N-[3-[(1R)-1-[7-[6-[2-(5-cyclopropyl-3-methyl-isoxazol-4-yl)-4-fluoro-phenoxy]-1,2,4-triazin-5-yl]-2,7-diazaspiro[3.4]octan-2-yl]-2-methyl-propyl]cyclobutyl]carbamate] | 580
8 | COC(=O)c1nccc(N[C@H]2C[C@@H](C(C(C)C)N3CC4(CCN(c5ncnnc5Oc5ccc(F)cc5-c5cncnc5C5CC5)C4)C3)C2)n1 (single isomer, unassigned) [Compound 489] | 220
9 | CNC(=O)c1nccc(N[C@H]2C[C@@H]([C@@H](C(C)C)N3CC4(CCN(c5ncnnc5Oc5ccc(F)cc5-c5cncnc5C5CC5)C4)C3)C2)n1 (single isomer, unassigned) [Compound 457] | 290
10 | CC(C)[C@@H](C1CN(CC2COC2)C1)N1CC2(CCN(c3ncnnc3Oc3ccc(F)cc3-c3cncnc3C3CC3)C2)C1 (single isomer, unassigned) [Compound 353] | 500
11 | CC(C)C(C1CCN(CC2COC2)CC1)N1CC2(CCN(c3ncnnc3Oc3ccc(F)cc3-c3nccnc3C3CC3)C2)C1 (stereo not shown) [Compound 202] | 700
12 | C[C@@H]([C@H]1C[C@@H](NC(=O)C2(F)CC2)C1)N1CC2(CCN(c3ncnnc3Oc3ccc(F)cc3-c3cncnc3C3CC3)C2)C1 (single isomer, unassigned) [Compound 456] | 530
13 | CC(=O)N[C@H]1C[C@@H](C(C(C)C)N2CC3(CCN(c4ncnnc4Oc4ccc(F)cc4-c4ccnnc4C4CC4)C3)C2)C1 (stereo partly shown) [Compound 182] | 600
